SMILES strings stand for the structures. pIC50: −log10 of the molar value. *1 amine or outer side, *2 acyl side, *3 side chain or, on linkers, in order; H or OH if unused. Where a SMILES comes first, the peptide text is derived from it. Bridges are numbered along the chain shown (N, C = ends). [ ]: non-standard residue; d: D form. ξ: configuration not given here. Lac(3-(indol-3-yl)) = O=C(O)[C@@H](O)Cc1c[nH]c2ccccc12; Phe(3,4,5-F3) = N[C@@H](Cc1cc(F)c(F)c(F)c1)C(=O)O; Trp(1-Me) = Cn1cc(C[C@H](N)C(=O)O)c2ccccc21; NMePhe(4-F) = CN[C@@H](Cc1ccc(F)cc1)C(=O)O; Phe(4-F) = N[C@@H](Cc1ccc(F)cc1)C(=O)O; Bta = N[C@@H](Cc1csc2ccccc12)C(=O)O; Hyp = O=C(O)[C@@H]1C[C@@H](O)CN1; NMeF = CN[C@@H](Cc1ccccc1)C(=O)O; X1 = O=C([C@H]1COCCN1[*:1])[*:2]; NMeNle = CCCC[C@H](NC)C(=O)O; d(hSer) = N[C@H](CCO)C(=O)O; dNle = CCCC[C@@H](N)C(=O)O; Pip = O=C(O)[C@@H]1CCCCN1; dPip = O=C(O)[C@H]1CCCCN1; hSer = N[C@@H](CCO)C(=O)O; NMeA = CN[C@@H](C)C(=O)O; Orn = NCCC[C@H](N)C(=O)O; Dab = NCC[C@H](N)C(=O)O; Abu = CC[C@H](N)C(=O)O; Dap = NC[C@H](N)C(=O)O; ξC = NC(CS)C(=O)O; Sar = CNCC(=O)O

In this experiment the target is T1, Human PD-L1/PD-1 (Homo sapiens, UniProt Q9NZQ7).
T1 construct: TVMV protease cleavage site (C); made in house; host or cells: HEK293T cells
Kind of experiment: HTRF Human PD-L1/PD-1 binding assay (PD-1-Ig/PD-L1-His). The settings on record: PD-L1-His 10 nM, PD-1-Ig 20 nM; class symbol; read-out: HTRF Human PD-L1/PD-1 Binding Assay IC50 Range. The method, boiled down:
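HTRF competition using HEK293T-expressed human PD-1(25-167)-Ig at 20 nM and PD-L1(18-239)-His at 10 nM, compound incubated first with PD-L1 for 15 min, then with PD-1 for 15 min. Signal read as 665/620 nm ratio 30 min after adding Eu anti-Ig and APC anti-His antibodies.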
For orientation: Time-resolved FRET reads energy transfer from a long-lived donor to a nearby acceptor.

T1 sequence (Q9NZQ7 with tags, fused parts or gaps): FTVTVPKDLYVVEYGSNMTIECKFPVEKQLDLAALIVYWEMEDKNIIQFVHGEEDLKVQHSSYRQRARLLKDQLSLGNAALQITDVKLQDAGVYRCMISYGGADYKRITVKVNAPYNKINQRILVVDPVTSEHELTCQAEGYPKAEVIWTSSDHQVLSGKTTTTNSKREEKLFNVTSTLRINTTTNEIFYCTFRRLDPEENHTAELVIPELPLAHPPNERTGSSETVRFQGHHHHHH

For `CCCC[C@H]1NC(=O)[C@H](Cc2csc3ccccc23)NC(=O)[C@H](CO)NC(=O)[C@H](Cc2c[nH]c3ccccc23)OC(=O)[C@@H]2CCCN2C(=O)[C@H](CC(C)C)NC(=O)[C@H](Cc2cnc[nH]2)NC(=O)[C@@H]2CCCN2C(=O)[C@H](CC(N)=O)NC(=O)[C@H](C)N(C)C(=O)[C@H](Cc2ccc(O)cc2)NC(=O)CSCC(C(=O)NCC(N)=O)NC(=O)[C@H](CCCNC(=N)N)NC(=O)[C@H](CCCC)N(C)C1=O` (stereo partly drawn) [Example 10122] ({CH2CO}-Y[NMeA]NPHLP[Lac(3-(indol-3-yl))]S[Bta][dNle][NMeNle]R[ξC]G-NH2; thioether N-14), the pIC50 was 5.00 to 6.00.
Under `CCCC[C@H]1C(=O)N(C)CC(=O)N[C@@H](CO)C(=O)N[C@@H](CC)C(=O)N(C)[C@@H](Cc2ccccc2)C(=O)N[C@@H](Cc2ccc(O)cc2)C(=O)N2CCCC[C@@H]2C(=O)N[C@@H](Cc2c[nH]c3ccccc23)C(=O)N[C@@H](Cc2ccc(O)cc2)C(=O)N[C@@H](CC(C)C)C(=O)N[C@H](C(=O)NCC(N)=O)CSCC(=O)N[C@@H](Cc2ccccc2)C(=O)N(C)[C@@H](Cc2ccccc2)C(=O)N1C` [Example 10061] ({CH2CO}-F[NMeF][NMeNle][Sar]S[Abu][NMeF]Y[dPip]WYLCG-NH2; thioether N-13) stands 7.00 to 8.00.
Under `CCCC[C@H]1C(=O)N2CCOC[C@@H]2C(=O)N[C@@H](CC(=O)O)C(=O)N[C@@H](C(C)C)C(=O)N(C)[C@@H](Cc2ccccc2)C(=O)N[C@@H](Cc2ccc(O)cc2)C(=O)N2CCOC[C@@H]2C(=O)N[C@@H](Cc2c[nH]c3ccccc23)C(=O)N[C@@H](Cc2ccc(O)cc2)C(=O)N[C@@H](CC(C)C)C(=O)N[C@H](C(=O)NCC(N)=O)CSCC(=O)N[C@@H](Cc2cc(F)c(F)c(F)c2)C(=O)N(C)[C@@H](Cc2ccccc2)C(=O)N1C` [Example 9283] ({CH2CO}-[Phe(3,4,5-F3)][NMeF][NMeNle][X1]DV[NMeF]Y[X1]WYLCG-NH2; thioether N-13) stands 8.00 to 9.00; under `CCCC[C@H]1C(=O)N(C)[C@@H](CCCC)C(=O)N[C@@H](C)C(=O)N[C@H](C(=O)NCC(N)=O)CSCC(=O)N[C@@H](Cc2ccc(O)cc2)C(=O)N2CCCC[C@H]2C(=O)N[C@@H](CC(=O)O)C(=O)N2CCC[C@H]2C(=O)N[C@@H](Cc2cnc[nH]2)C(=O)N[C@@H](CCC(N)=O)C(=O)N2C[C@H](O)C[C@H]2C(=O)N[C@@H](Cc2c[nH]c3ccccc23)C(=O)N[C@@H](CO)C(=O)N[C@@H](Cc2c[nH]c3ccccc23)C(=O)N1C` [Example 1261] ({CH2CO}-Y[Pip]DPHQ[Hyp]WSW[NMeNle][NMeNle]ACG-NH2; thioether N-14), 8.00 to 9.00; under `CCCC[C@H]1C(=O)N(C)[C@@H](C)C(=O)N[C@@H](CCCNC(=N)N)C(=O)NC(C(=O)NCC(N)=O)CSCC(=O)N[C@@H](Cc2ccc(O)cc2)C(=O)N(C)[C@@H](C)C(=O)N[C@@H](CC(N)=O)C(=O)N2CCC[C@H]2C(=O)N[C@@H](CC(N)=O)C(=O)N[C@@H](CC(C)C)C(=O)N2CCC[C@H]2C(=O)N[C@@H](Cc2c[nH]c3ccccc23)C(=O)N[C@@H](CO)C(=O)N[C@@H](Cc2csc3ccccc23)C(=O)N1C` (stereo partly drawn) [Example 9137] ({CH2CO}-Y[NMeA]NPNLPWS[Bta][NMeNle][NMeA]R[ξC]G-NH2; thioether N-14), 8.00 to 9.00.
Next, `CCCC[C@H]1C(=O)N2CCC[C@@H]2C(=O)N[C@@H](CC(=O)O)C(=O)N[C@@H](C(C)C)C(=O)N(C)[C@@H](Cc2ccccc2)C(=O)N[C@@H](Cc2ccc(O)cc2)C(=O)N2CCOC[C@@H]2C(=O)N[C@@H](Cc2c[nH]c3ccccc23)C(=O)N[C@@H](Cc2ccc(O)cc2)C(=O)N[C@@H](CCOC)C(=O)N[C@H](C(=O)NCC(N)=O)CSCC(=O)N[C@@H](Cc2cc(F)c(F)c(F)c2)C(=O)N(C)[C@@H](Cc2ccccc2)C(=O)N1C` [Example 10187] ({CH2CO}-[Phe(3,4,5-F3)][NMeF][NMeNle][dP]DV[NMeF]Y[X1]WY[hSer](Me)CG-NH2; thioether N-13): 8.00 to 9.00; `CCCC[C@H]1C(=O)N[C@@H](CC(N)=O)C(=O)N2CCC[C@H]2C(=O)N[C@@H](CO)C(=O)N[C@@H](CCO)C(=O)N2C[C@H](O)C[C@H]2C(=O)N[C@@H](Cc2c[nH]c3ccccc23)C(=O)N[C@@H](CO)C(=O)N[C@@H](Cc2c[nH]c3ccccc23)C(=O)N(C)[C@@H](C)C(=O)N(C)[C@@H](C)C(=O)N[C@@H](CCCN)C(=O)NC(C(=O)NCC(N)=O)CSCC(=O)N[C@@H](Cc2ccc(O)cc2)C(=O)N1C` (stereo partly drawn) [Example 10213] ({CH2CO}-Y[NMeNle]NPS[hSer][Hyp]WSW[NMeA][NMeA][Orn][ξC]G-NH2; thioether N-14): 5.00 to 6.00.
For the compound `CCCC[C@H]1C(=O)N(C)[C@@H](CCCC)C(=O)N[C@@H](CCCNC(=N)N)C(=O)NC(C(=O)NCC(N)=O)CSCC(=O)N[C@@H](Cc2ccc(O)cc2)C(=O)N(C)[C@@H](C)C(=O)N[C@@H](CC(N)=O)C(=O)N2CCC[C@H]2C(=O)N[C@@H](Cc2cnc[nH]2)C(=O)N[C@H](CCO)C(=O)N2C[C@H](O)C[C@H]2C(=O)N[C@@H](Cc2c[nH]c3ccccc23)C(=O)N[C@@H](CO)C(=O)N[C@@H](Cc2c[nH]c3ccccc23)C(=O)N1C` (stereo partly drawn) [Example 9125] ({CH2CO}-Y[NMeA]NPH[d(hSer)][Hyp]WSW[NMeNle][NMeNle]R[ξC]G-NH2; thioether N-14), the pIC50 was 7.00 to 8.00.
Under `CCCC[C@H]1C(=O)N2CCC[C@@H]2C(=O)N[C@@H](CC(=O)O)C(=O)N[C@@H](C)C(=O)N(C)[C@@H](Cc2ccccc2)C(=O)N[C@@H](Cc2ccc(O)cc2)C(=O)N(C)CC(=O)N[C@@H](Cc2c[nH]c3ccccc23)C(=O)N[C@@H](Cc2ccc(O)cc2)C(=O)N[C@@H](CC(C)C)C(=O)N[C@H](C(=O)NCC(N)=O)CSCC(=O)N[C@@H](Cc2cc(F)c(F)c(F)c2)C(=O)N(C)[C@@H](Cc2ccccc2)C(=O)N1C` [Example 10053] ({CH2CO}-[Phe(3,4,5-F3)][NMeF][NMeNle][dP]DA[NMeF]Y[Sar]WYLCG-NH2; thioether N-13) stands 7.00 to 8.00; under `CCCC[C@H]1C(=O)N(C)[C@@H](CCCC)C(=O)N[C@@H](CCC(=O)O)C(=O)N[C@H](C(=O)NCC(N)=O)CSCC(=O)N[C@@H](Cc2ccc(O)cc2)C(=O)N(C)[C@@H](C)C(=O)N[C@@H](CC(=O)O)C(=O)N2CCC[C@H]2C(=O)N[C@@H](CO)C(=O)N[C@@H](CCC(N)=O)C(=O)N2C[C@H](O)C[C@H]2C(=O)N[C@@H](Cc2c[nH]c3ccccc23)C(=O)N[C@@H](CCN)C(=O)N[C@@H](Cc2c[nH]c3ccccc23)C(=O)N1C` [Example 5221] ({CH2CO}-Y[NMeA]DPSQ[Hyp]W[Dab]W[NMeNle][NMeNle]ECG-NH2; thioether N-14), 8.00 to 9.00; under `CCCC[C@H]1C(=O)N2CCC[C@@H]2C(=O)N[C@@H](CC(=O)O)C(=O)N[C@@H](C(C)C)C(=O)N(C)[C@@H](Cc2ccc(F)cc2)C(=O)N[C@@H](CCC(=O)O)C(=O)N2CCC[C@@H]2C(=O)N[C@@H](Cc2c[nH]c3ccccc23)C(=O)N[C@@H](Cc2ccc(O)cc2)C(=O)N[C@@H](CC(C)C)C(=O)N[C@H](C(=O)NCC(N)=O)CSCC(=O)N[C@@H](Cc2ccc(F)cc2)C(=O)N(C)[C@@H](Cc2ccccc2)C(=O)N1C` [Example 10111] ({CH2CO}-[Phe(4-F)][NMeF][NMeNle][dP]DV[NMePhe(4-F)]E[dP]WYLCG-NH2; thioether N-13), 8.00 to 9.00.
Next, `CCCC[C@H]1C(=O)N(C)[C@@H](CCCC)C(=O)N[C@@H](CCC(=O)O)C(=O)N[C@H](C(=O)NCC(N)=O)CSCC(=O)N[C@@H](Cc2ccc(OC)cc2)C(=O)N(C)[C@@H](C)C(=O)N[C@@H](CC(N)=O)C(=O)N2CCC[C@H]2C(=O)N[C@@H](CN)C(=O)N[C@@H](CCCCN)C(=O)N2C[C@H](O)C[C@H]2C(=O)N[C@@H](Cc2c[nH]c3ccccc23)C(=O)N[C@@H](CC(=O)O)C(=O)N[C@@H](Cc2c[nH]c3ccccc23)C(=O)N1C` [Example 7127] ({CH2CO}-Y(Me)[NMeA]NP[Dap]K[Hyp]WDW[NMeNle][NMeNle]ECG-NH2; thioether N-14): 7.00 to 8.00; `CCCC[C@H]1C(=O)N(C)CC(=O)N[C@@H](CC(=O)O)C(=O)NC(C(C)c2ccccc2)C(=O)N(C)[C@@H](Cc2ccccc2)C(=O)N[C@@H](Cc2ccc(O)cc2)C(=O)N(C)CC(=O)N[C@@H](Cc2c[nH]c3ccccc23)C(=O)N[C@@H](Cc2ccc(O)cc2)C(=O)N[C@@H](CC(C)C)C(=O)N[C@H](C(=O)NCC(N)=O)CSCC(=O)N[C@@H](Cc2ccccc2)C(=O)N(C)[C@@H](Cc2ccccc2)C(=O)N1C` (single isomer, unassigned) [Example 3230-C]: 6.00 to 7.00; `CCCC[C@H]1C(=O)N(C)[C@@H](CCCC)C(=O)N[C@@H](CCCNC(=N)N)C(=O)NC(C(=O)NCC(N)=O)CSCC(=O)N[C@@H](Cc2ccc(O)cc2)C(=O)N(C)[C@@H](C)C(=O)N[C@@H](CC(N)=O)C(=O)N2CCC[C@H]2C(=O)N[C@@H](CO)C(=O)N[C@@H](CCO)C(=O)N2C[C@H](O)C[C@H]2C(=O)N[C@@H](Cc2c[nH]c3ccccc23)C(=O)N[C@@H](CCO)C(=O)N[C@@H](Cc2c[nH]c3ccccc23)C(=O)N1C` (stereo partly drawn) [Example 10052] ({CH2CO}-Y[NMeA]NPS[hSer][Hyp]W[hSer]W[NMeNle][NMeNle]R[ξC]G-NH2; thioether N-14): 8.00 to 9.00.
Under `CCCC[C@H]1C(=O)N(C)[C@@H](CCCC)C(=O)N[C@@H](CC(C)C)C(=O)N[C@H](C(=O)NCC(N)=O)CSCC(=O)N[C@@H](Cc2ccc(O)cc2)C(=O)N(C)[C@@H](C)C(=O)N[C@@H](CC(=O)O)C(=O)N2CCC[C@H]2C(=O)N[C@@H](Cc2cnc[nH]2)C(=O)N[C@@H](CCC(N)=O)C(=O)N2C[C@H](O)C[C@H]2C(=O)N[C@@H](Cc2c[nH]c3ccccc23)C(=O)N[C@@H](CO)C(=O)N[C@@H](Cc2cn(C)c3ccccc23)C(=O)N1C` [Example 1503] ({CH2CO}-Y[NMeA]DPHQ[Hyp]WS[Trp(1-Me)][NMeNle][NMeNle]LCG-NH2; thioether N-14) stands 8.00 to 9.00.

(Values after patent US10538555B2, “Macrocyclic inhibitors of the PD-1/PD-L1 and CD80(B7-1)/PD-L1 protein/protein interactions” (BRISTOL-MYERS SQUIBB COMPANY, priority 2014, dated 2020).)
